In experiment [1] the target is T1, wt human TYK2, catalytic site (Homo sapiens, UniProt P29597).
T1 construct: wt human TYK2, catalytic site; purchased SignalChem
T1 sequence (P29597 897-1176 limits assumed): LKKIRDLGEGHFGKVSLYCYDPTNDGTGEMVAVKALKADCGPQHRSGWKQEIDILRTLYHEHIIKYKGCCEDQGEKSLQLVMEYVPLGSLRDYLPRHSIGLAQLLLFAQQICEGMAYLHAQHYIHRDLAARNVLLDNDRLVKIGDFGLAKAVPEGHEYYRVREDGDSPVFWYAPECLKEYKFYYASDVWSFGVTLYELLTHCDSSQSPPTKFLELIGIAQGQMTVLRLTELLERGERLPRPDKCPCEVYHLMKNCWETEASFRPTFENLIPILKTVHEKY
As to the kind of experiment: HTRF KinEASE assay, TYK2. To be noted: 1 μM ATP; read-out: IC50, Activity Toward TYK2. The format is biochemical. In a few lines: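 Kinase reaction run at room temperature for at least 30 min: 2 nM TYK2 with 1 μM ATP, or 1 nM JAK2 with 100 μM ATP, each with 1 μM biotin-TK substrate. Phosphorylation detected by HTRF (60 min antibody/XL665) and evaluated from emission ratios.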

For experiment [2], the target named is T2, wt human JAK1, catalytic site (Homo sapiens, UniProt P23458).
T2 construct: wt human JAK1, catalytic site; purchased ThermoFisher
As to the kind of experiment: HTRF KinEASE assay, JAK1. The format is biochemical. To be noted: 2.5 μM ATP; read-out: IC50, Activity Toward JAK1. In a few lines:
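Compounds in DMSO dilution were mixed with kinase, biotin-TK substrate and ATP and reacted for ≥30 min at room temperature. Detection reagents (antibody, streptavidin-XL665) were read 60 min later as HTRF, with emission ratios analysed per KinEASE protocol.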

T2 sequence (P23458 875-1153 limits assumed): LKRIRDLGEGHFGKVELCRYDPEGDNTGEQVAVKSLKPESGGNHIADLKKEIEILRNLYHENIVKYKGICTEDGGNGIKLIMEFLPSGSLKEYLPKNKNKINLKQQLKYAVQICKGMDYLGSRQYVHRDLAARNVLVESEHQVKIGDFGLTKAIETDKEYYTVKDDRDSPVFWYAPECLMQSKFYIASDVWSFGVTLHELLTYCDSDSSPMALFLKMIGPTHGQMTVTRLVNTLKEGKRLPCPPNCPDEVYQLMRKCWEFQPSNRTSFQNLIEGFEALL

`NC(=O)c1nn(-c2c(Cl)cccc2Cl)nc1Nc1ccc(C(=O)N2CCC(F)C2)cn1` (stereo in doubt) [compound 130, (S)-2-(2,6-dichlorophenyl)-5-((5-(3-fluoropyrrolidine-1-carbonyl)pyridin-2-yl)amino)-2H-1,2,3-triazole-4-carboxamide]: the IC50 in experiment [1] is 10 to 100 nM; in experiment [2], 100 to 1000 nM.
The corresponding values for `NC(=O)c1nn(-c2c(Cl)cccc2Cl)cc1Nc1ccc(C(=O)N2CCOCC2)nc1` [compound 365, 1-(2,6-dichlorophenyl)-4-((6-(morpholine-4-carbonyl)pyridin-3-yl)amino)-1H-pyrazole-3-carboxamide] are 10 to 100 nM and 10 to 100 nM.
The corresponding values for `COc1ccc(Cn2cc(Nc3cn(-c4c(Cl)cccc4Cl)nc3C(N)=O)cn2)cc1` [compound 392, 1-(2,6-dichlorophenyl)-4-((1-(4-methoxybenzyl)-1H-pyrazol-4-yl)amino)-1H-pyrazole-3-carboxamide] are 100 to 1000 nM and 100 to 1000 nM.
In the case of `CN1CCN(C(=O)c2cnc(Nc3cn(-c4c(Cl)cccc4Cl)nc3C(N)=O)cn2)CC1` [compound 402, 1-(2,6-dichlorophenyl)-4-((5-(4-methylpiperazine-1-carbonyl)pyrazin-2-yl)amino)-1H-pyrazole-3-carboxamide], the IC50 in experiment [1] and in experiment [2] was 100 to 1000 nM each time.
In the case of `NC(=O)c1nn(-c2c(Cl)cccc2Cl)cc1Nc1ccc(C(=O)N2CC[C@H](N)C2)nc1` [compound 357, (S)-4-((6-(3-aminopyrrolidine-1-carbonyl)pyridin-3-yl)amino)-1-(2,6-dichlorophenyl)-1H-pyrazole-3-carboxamide], the IC50 in experiment [1] is 10 to 100 nM; in experiment [2], 100 to 1000 nM.
The corresponding values for `CC(C)(C)NC(=O)c1ccc(Nc2cn(-c3c(F)cccc3Cl)nc2C(N)=O)cc1F` [compound 29] are 10 to 100 nM and 100 to 1000 nM.
On to `NC(=O)c1nn(-c2c(Cl)cccc2Cl)cc1Nc1cnn(CC(=O)N2CCS(=O)(=O)CC2)c1` [compound 469, 1-(2,6-dichlorophenyl)-4-((1-(2-(1,1-dioxidothiomorpholino)-2-oxoethyl)-1H-pyrazol-4-yl)amino)-1H-pyrazole-3-carboxamide], for which the IC50 in experiment [1] and in experiment [2] was 10 to 100 nM throughout.
Turning to `CC1(C)CN(C(=O)c2ccc(Nc3cn(-c4c(Cl)cccc4Cl)nc3C(N)=O)cn2)C1` [compound 464, 1-(2,6-dichlorophenyl)-4-((6-(3,3-dimethylazetidine-1-carbonyl)pyridin-3-yl)amino)-1H-pyrazole-3-carboxamide], the IC50 in experiment [1] lay in the range of 10 to 100 nM; in experiment [2], 100 to 1000 nM.
With `NC(=O)c1nn(-c2c(Cl)cccc2Cl)cc1Nc1ccc(-n2ncnc2CO)cc1` [compound 348, 1-(2,6-dichlorophenyl)-4-((4-(5-(hydroxymethyl)-1H-1,2,4-triazol-1-yl)phenyl)amino)-1H-pyrazole-3-carboxamide], the IC50 was under 10 nM in experiment [1] and 10 to 100 nM in experiment [2].
The corresponding values for `NC(=O)c1nn(-c2c(Cl)cccc2Cl)cc1Nc1ccc(-n2nncc2C(F)(F)F)cc1` [compound 438, 1-(2,6-dichlorophenyl)-4-((4-(5-(trifluoromethyl)-1H-1,2,3-triazol-1-yl)phenyl)amino)-1H-pyrazole-3-carboxamide] are 10 to 100 nM and 100 to 1000 nM.
The corresponding values for `NC(=O)c1nn(-c2c(Cl)cccc2Cl)cc1Nc1ccc(-c2nnccc2Cl)cc1` [compound 67, 4-((4-(4-chloropyridazin-3-yl)phenyl)amino)-1-(2,6-dichlorophenyl)-1H-pyrazole-3-carboxamide] are 100 to 1000 nM and 100 to 1000 nM.
In the same order, the values of `N#Cc1cc(Cl)c(-n2nc(Nc3ccc(C(=O)N4CCC(F)C4)cc3)c(C(N)=O)n2)c(Cl)c1` (stereo in doubt) [compound 148, (R)-2-(2,6-dichloro-4-cyanophenyl)-5-((4-(3-fluoropyrrolidine-1-carbonyl)phenyl)amino)-2H-1,2,3-triazole-4-carboxamide] are 10 to 100 nM and 100 to 1000 nM.
With `CCn1cc(C(F)(F)F)nc1-c1ccc(Nc2cn(-c3c(Cl)cccc3Cl)nc2C(N)=O)cc1` [compound 293, 1-(2,6-dichlorophenyl)-4-((4-(1-ethyl-4-(trifluoromethyl)-1H-imidazol-2-yl)phenyl)amino)-1H-pyrazole-3-carboxamide], the IC50 in experiment [1] and in experiment [2] was 10 to 100 nM in each case.
As for `CC(C)c1ccn(-c2ccc(Nc3cn(-c4c(Cl)cccc4Cl)nc3C(N)=O)cc2)n1` [compound 263, 1-(2,6-dichlorophenyl)-4-((4-(3-isopropyl-1H-pyrazol-1-yl)phenyl)amino)-1H-pyrazole-3-carboxamide], the IC50 in experiment [1] and in experiment [2] was 100 to 1000 nM throughout.
For `NC(=O)c1nn(-c2c(Cl)cccc2Cl)cc1Nc1ccc(-c2nc(C(F)(F)F)cn2CCO)nc1` [compound 373, 1-(2,6-dichlorophenyl)-4-((6-(1-(2-hydroxyethyl)-4-(trifluoromethyl)-1H-imidazol-2-yl)pyridin-3-yl)amino)-1H-pyrazole-3-carboxamide], the IC50 is 10 to 100 nM in experiment [1] and 100 to 1000 nM in experiment [2].
The corresponding values for `Cc1nnnn1-c1ccc(Nc2cn(-c3c(Cl)cccc3Cl)nc2C(N)=O)nc1` [compound 435, 1-(2,6-dichlorophenyl)-4-((5-(5-methyl-1H-tetrazol-1-yl)pyridin-2-yl)amino)-1H-pyrazole-3-carboxamide] are 10 to 100 nM and 10 to 100 nM.
In the same order, the values of `NC(=O)c1nn(-c2c(Cl)cccc2Cl)cc1Nc1ccc(C(=O)N2CCN(C3CC3)CC2)nc1` [compound 364, 4-((6-(4-cyclopropylpiperazine-1-carbonyl)pyridin-3-yl)amino)-1-(2,6-dichlorophenyl)-1H-pyrazole-3-carboxamide] are 10 to 100 nM and 100 to 1000 nM.
For the compound `NC(=O)c1nn(-c2c(Cl)cc(F)cc2Cl)cc1Nc1ccc(C(=O)N2CCOCC2)cc1` [compound 412, 1-(2,6-dichloro-4-fluorophenyl)-4-((4-(morpholine-4-carbonyl)phenyl)amino)-1H-pyrazole-3-carboxamide], the IC50 in experiment [1] and in experiment [2] was 10 to 100 nM throughout.
Take `NC(=O)c1nn(-c2c(Cl)cccc2Cl)nc1Nc1ccc(C(=O)NCCF)cc1` [compound 128, 2-(2,6-dichlorophenyl)-5-((4-((2-fluoroethyl)carbamoyl)phenyl)amino)-2H-1,2,3-triazole-4-carboxamide]: the IC50 in experiment [1] and in experiment [2] was under 10 nM in each case.
Take `NC(=O)c1nn(-c2c(Cl)cccc2Cl)cc1Nc1ccc(C(=O)N2CC(O)C2)cn1` [compound 439, 1-(2,6-dichlorophenyl)-4-((5-(3-hydroxyazetidine-1-carbonyl)pyridin-2-yl)amino)-1H-pyrazole-3-carboxamide]: the values for the IC50 in experiment [1] and in experiment [2] were 100 to 1000 nM and 10 to 100 nM, respectively.
In the same order, the values of `Cc1nnnn1-c1ccc(Nc2nn(-c3c(Cl)cccc3Cl)nc2C(N)=O)nc1` [compound 134, 2-(2,6-dichlorophenyl)-5-((5-(5-methyl-1H-tetrazol-1-yl)pyridin-2-yl)amino)-2H-1,2,3-triazole-4-carboxamide] are 10 to 100 nM and 10 to 100 nM.

Source of the values: patent publication US20230373985A1 (Origenis Gmbh, priority 2020, published 2023).
